Assay results reported in PMC9986244, “Connection between MHC class II binding and aggregation propensity: The antigenic peptide 10 of Paracoccidioides brasiliensis as a benchmark study” (Computational and Structural Biotechnology Journal, 2023).
“Also recorded” adds a separate entry of the source.

Columns and labels:
[1] = Transmission electron microscopy (TEM) of aggregates; type: physicochemical; conditions: peptide in PBS, 18 h, 37 °C; negative staining 2 % uranyl acetate; 20 μM (Fig. 7 legend), 100 µM (method)
Procedure: […] of each peptide suspension (100 µM) was absorbed onto 200-mesh carbon-coated copper grids (Pelco, Ref: 01800 F) for 5 min and then blotted to remove excess material. Negative staining was performed by adding […] of 2 % (w/v) uranyl acetate. Samples were dried on air for 3 min. The grids were imaged with a Jeol 1200 electron microscope (Jeol Ltd.) operating at a 60 kV acceleration voltage.

[2] = In vitro aggregation, Congo red (CR) binding; type: physicochemical; conditions: 20 μM peptide in PBS pH 7.4, 37 °C, 18 h; pellet (17,000 X g, 30 min) with 10 µM Congo red 5 min, absorbance 540 and 477 nm; in words, Fig. 6
Procedure: (§1) For in-vitro aggregation assays, P10 and a total of ten selected P10 variants were purchased from Genscript with purity above 95 % and diluted in DMSO (Sigma-Aldrich code D8418) 100 % to a final concentration of 5 mM (stock solution) and kept at −20 °C for storage.
(§2) P10 and its variants stock solutions were diluted in PBS at 20 μM; pH 7.4 at 37 °C for 18 h under agitation. To measure light scattering (LS), samples were excited at 320 nm while emission was collected at 320 nm in the spectrofluorometer Jasco FP8200 (Jasco Corp., Tokyo, Japan). Aliquots of the aggregation suspension were diluted in the presence of Thioflavin-T (Sigma-Aldrich code T3516) (ThT; 50 μM and peptide 20 μM), a specific fluorescent probe for AF. ThT fluorescence emission was measured at 485 nm by exciting the samples at 450 nm. Congo red (Sigma-Aldrich code C6767) binding assays, another amyloid specific probe, were performed according to Palhano [47]. The samples (50 μL) were centrifuged at 17,000 X g for 30 min, and the pellet was incubated with 10 µM Congo red solution for 5 min. The absorbance was measured at 540 and 477 nm and the fraction of bound Congo red was determined by the following formula [mol of bound Congo red/mol of protein = OD540/25,295 – OD477/46,306].

[3] = In vitro aggregation, Thioflavin-T (ThT) binding; type: physicochemical; conditions: 20 μM peptide in PBS pH 7.4, 37 °C, 18 h; ThT 50 μM, excitation 450 nm, emission 485 nm; in words, Fig. 6
Procedure: as §1, §2

[4] = In vitro aggregation, light scattering (LS); type: physicochemical; conditions: 20 μM peptide in PBS pH 7.4 from 5 mM DMSO stock, 37 °C, 18 h under agitation; excitation and emission 320 nm; in words, Fig. 6
Procedure: as §1, §2

[5] = previously shown; cited from earlier work
From the text: Since P10 aggregates into AF in vitro, we investigated whether the peptides probed with ProImmune REVEAL® binding assays were able to form amyloid aggregates as well. To address this question, we initially submitted the ten selected sequences of the P10 variants (V1, V3, V5, V6, V7, V10, V11, V14, V15 and V16) to Cordax, an amyloid structure predictor able to model a given structure into steric zippers common to amyloids. For most of these P10 variants, regardless of their SF, at least two types of consensus steric zippers encompassing the sequence ^7(H)TLAIR(Y)^13 were predicted. The exceptio ...

[6] = system: Paracoccidioides brasiliensis; conditions: immunization, compared with full gp43; cited from earlier work
From the text: (§3) In addition to peptide binding affinity, other properties to evaluate are their solubility and aggregation propensity. […] Many proteins and peptides in solution can aggregate into amyloid fibrils (AF), a type of aggregate that can accumulate in organs and tissues causing diseases such as Parkinson’s and Alzheimer’s. This is the case of P10 ([…]), ...

[7] = system: MHC-II alleles; conditions: cited from earlier work
From the text: as §3

[8] = depends on peptide concentration, pH and temperature; cited from earlier work
From the text: In addition to peptide binding affinity, other properties to evaluate are their solubility and aggregation propensity. […] Many proteins and peptides in solution can aggregate into amyloid fibrils (AF), a type of aggregate that can accumulate in organs and tissues causing diseases such as Parkinson’s and Alzheimer’s. […] Here, we describe an additional layer of information that could be used to predict good and poor epitope-binders to MHC-II, which is its aggregation propensity. According to the Aggregation hypothesis of antigen selection as enunciated by Forsdyke, [54], homoaggregation of antigen ...

Sequence	Morphology of aggregates by TEM [1]	Congo red (CR) binding [2]	Thioflavin T (ThT) binding [3]	Light scattering (LS) [4]	Regions able to form steric zippers [5]	Protection of mice against Pb infection [6]	Binding to a set of MHC-II alleles [7]	Aggregation in solution [8]
QTYHAIHTLAIRYAN [Peptide V14]	ribbon-like appearance							
QGLKAIHTLAIRYAN [Peptide V10]	formed mature amyloid fibrils	bind CR	did not bind ThT					
QTLTAIHTLAIRYAN [Peptide V6]	formed mature amyloid fibrils	bind CR	did not bind ThT					
QTLLDIHTLAIRYAN [Peptide V1]	amyloid fibrils were observed	behaved like P10	behaved like P10	behaved like P10				
QTLIAIHTLAIRYAN [Peptide P10]					^2TLIAIH^7, ^3LIAIHT^8, ^4IAIHTL^9, ^7HTLAIR^12 and ^8TLAIRY^13	protecting mice against Pb infection as effectively as using the full gp43	nanomolar	aggregate into insoluble AF; also recorded: more prominent at neutral pH than at acidic pH
